The record followed here is CN116462616A, “炔酰胺类化合物及其应用” (Jinan University, priority 2022, dated 2023).

Series [1] deals with T1, bovine serum albumin [牛血清蛋白] (Bos taurus, UniProt P02769). The experiment in a line: Covalent modification of amino acid residues of a pure protein (gel fluorescence after click chemistry). Format: binding. The note with it: 10.0 μM probe, 1 mg/mL protein, 37 °C, 3 h.
For series [2], the system named is proteins of HepG2 cells [人源肝癌细胞HepG2]. Kind of series: Covalent modification of protein amino acid residues in tumour cells (live-cell labelling, gel fluorescence). In kind it is cell-based, human. As to conditions: HepG2, 50 μM probe, 37 °C, 3 h.
Series [3] deals with T1, bovine serum albumin [牛血清蛋白]. The experiment in a line: Selective modification of acidic amino acid residues of a pure protein (biological mass spectrometry). Format: binding. The note with it: 100 μM, 37 °C, 0.5 h.
Series [4] concerns HepG2 cells [HepG2细胞]. The experiment in a line: Selective modification of acidic amino acid residues in cells (biological mass spectrometry). Format: cell-based, human. The note with it: 100 μM, 37 °C, 8 h.
Series [5] deals with T2, ALDH1 (Homo sapiens, UniProt P00352).
T2 construct: 50μM分子探针YN-1和YN-4与HepG2/H3255细胞于37℃孵育5h; endogenous in cells; host or cells: HepG2/H3255
T2 sequence (P00352 1-501): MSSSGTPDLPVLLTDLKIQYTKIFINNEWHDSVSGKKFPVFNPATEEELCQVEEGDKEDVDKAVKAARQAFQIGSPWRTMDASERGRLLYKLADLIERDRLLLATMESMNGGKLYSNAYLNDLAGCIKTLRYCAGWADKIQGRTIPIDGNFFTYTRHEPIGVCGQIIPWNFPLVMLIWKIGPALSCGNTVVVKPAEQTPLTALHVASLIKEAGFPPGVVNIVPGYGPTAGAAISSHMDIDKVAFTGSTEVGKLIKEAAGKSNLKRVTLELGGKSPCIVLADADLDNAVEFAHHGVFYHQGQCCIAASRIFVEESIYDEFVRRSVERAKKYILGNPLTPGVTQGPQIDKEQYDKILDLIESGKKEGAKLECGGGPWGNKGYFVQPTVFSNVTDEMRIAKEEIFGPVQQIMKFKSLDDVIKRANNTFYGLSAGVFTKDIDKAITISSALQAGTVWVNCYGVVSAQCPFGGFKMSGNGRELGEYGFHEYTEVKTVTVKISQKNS
The experiment in a line: Pull-down and western blot, ALDH1. Format: binding. As to conditions: 50 μM, HepG2/H3255 cells, 37 °C, 5 h. On the technique in general: A western blot detects proteins with antibodies after separation by electrophoresis.

The target in series [6] is T3, GAPDH (Homo sapiens, UniProt P04406).
T3 construct: 50μM分子探针YN-1和YN-4与HepG2/H3255细胞于37℃孵育5h; endogenous in cells; host or cells: HepG2/H3255
T3 sequence (P04406 whole entry): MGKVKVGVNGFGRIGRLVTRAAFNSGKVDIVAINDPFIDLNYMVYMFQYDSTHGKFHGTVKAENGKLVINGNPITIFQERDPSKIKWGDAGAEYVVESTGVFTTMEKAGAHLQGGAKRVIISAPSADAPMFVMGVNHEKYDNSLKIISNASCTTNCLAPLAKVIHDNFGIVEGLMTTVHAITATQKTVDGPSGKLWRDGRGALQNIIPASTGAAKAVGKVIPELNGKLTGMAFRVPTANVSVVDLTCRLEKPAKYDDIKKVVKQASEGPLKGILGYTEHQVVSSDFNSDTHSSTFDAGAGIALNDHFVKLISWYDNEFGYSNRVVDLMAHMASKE
The experiment in a line: Pull-down and western blot, GAPDH. In kind it is binding. The note with it: 50 μM, HepG2/H3255 cells, 37 °C, 5 h.

Series [7] has as its target T4, MEK2 (Homo sapiens, UniProt P36507).
T4 construct: 50μM分子探针YN-1和YN-4与HepG2/H3255细胞于37℃孵育5h; endogenous in cells; host or cells: HepG2/H3255
Kind of series: Pull-down and western blot, MEK2. As to conditions: 50 μM, HepG2/H3255 cells, 37 °C, 5 h. In kind it is binding.

Series [8] has as its target T5, ECH1 (Homo sapiens, UniProt Q13011).
T5 construct: 50μM分子探针YN-1和YN-4与HepG2/H3255细胞于37℃孵育5h; endogenous in cells; host or cells: HepG2/H3255
T5 sequence (Q13011 34-328): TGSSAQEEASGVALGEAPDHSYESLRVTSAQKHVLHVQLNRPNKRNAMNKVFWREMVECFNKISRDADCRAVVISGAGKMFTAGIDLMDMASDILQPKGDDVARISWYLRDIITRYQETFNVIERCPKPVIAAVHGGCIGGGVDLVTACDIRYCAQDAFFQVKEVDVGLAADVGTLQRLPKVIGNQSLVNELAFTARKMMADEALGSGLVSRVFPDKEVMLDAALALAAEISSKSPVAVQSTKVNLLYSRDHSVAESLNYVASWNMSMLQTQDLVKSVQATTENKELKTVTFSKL
Kind of series: Pull-down and western blot, ECH1. Format: binding. The note with it: 50 μM, HepG2/H3255 cells, 37 °C, 5 h.

The structures appear in SMILES notation.

T1 sequence (P02769 25-607): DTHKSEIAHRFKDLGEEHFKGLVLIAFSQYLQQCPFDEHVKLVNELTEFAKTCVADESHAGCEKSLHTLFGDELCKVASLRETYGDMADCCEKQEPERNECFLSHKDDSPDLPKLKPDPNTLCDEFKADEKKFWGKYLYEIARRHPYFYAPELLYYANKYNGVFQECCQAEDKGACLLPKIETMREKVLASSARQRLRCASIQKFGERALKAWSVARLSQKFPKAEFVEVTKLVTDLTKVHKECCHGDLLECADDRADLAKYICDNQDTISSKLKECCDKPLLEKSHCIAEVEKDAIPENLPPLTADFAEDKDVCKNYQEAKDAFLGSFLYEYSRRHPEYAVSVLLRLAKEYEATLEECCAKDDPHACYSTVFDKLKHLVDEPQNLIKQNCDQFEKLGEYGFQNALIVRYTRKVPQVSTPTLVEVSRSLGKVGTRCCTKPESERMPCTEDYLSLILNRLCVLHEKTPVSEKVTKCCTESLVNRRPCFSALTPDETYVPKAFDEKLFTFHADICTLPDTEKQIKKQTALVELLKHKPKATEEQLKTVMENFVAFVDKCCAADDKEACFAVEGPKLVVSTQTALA
T4 sequence (P36507 whole entry): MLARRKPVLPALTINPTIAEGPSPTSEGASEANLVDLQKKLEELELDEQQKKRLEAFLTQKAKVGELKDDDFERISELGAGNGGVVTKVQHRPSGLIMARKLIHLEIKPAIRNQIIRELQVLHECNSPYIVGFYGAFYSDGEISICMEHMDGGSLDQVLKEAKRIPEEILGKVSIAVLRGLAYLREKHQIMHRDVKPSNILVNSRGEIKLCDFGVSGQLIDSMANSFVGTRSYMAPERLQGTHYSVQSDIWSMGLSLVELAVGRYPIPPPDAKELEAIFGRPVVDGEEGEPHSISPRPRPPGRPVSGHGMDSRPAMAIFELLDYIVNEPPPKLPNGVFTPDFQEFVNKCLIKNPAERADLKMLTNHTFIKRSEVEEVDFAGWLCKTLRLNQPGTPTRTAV

For `C#Cc1ccc(S(=O)(=O)N(C)C#C)cc1` [YN-1], the “covalent labelling of bovine serum albumin” value in series [1] is “能够共价标记牛血清蛋白”. Also, in series [2], the “covalent labelling of proteins at live-cell level” value is “能够在活细胞水平共价标记蛋白”. Also, the “selective modification of acidic amino acid residues (aspartic acid and glutamic acid)” value in series [3] and in series [4] was “可选择性修饰酸性氨基酸残基天冬氨酸残基及谷氨酸残基” in each case. For the same compound, the “targeted binding to ALDH1” value in series [5] is reported as “能靶向结合”. The “targeted binding to GAPDH” value in series [6] is reported as “能靶向结合”. For the same compound, the “targeted binding to MEK2” value in series [7] is “能靶向结合”. In series [8], the “targeted binding to ECH1” value is “能靶向结合”.
On to `C#Cc1ccc(C#CN(C)S(=O)(=O)c2ccc(C)cc2)cc1` [YN-2], for which, in series [1], the “covalent labelling of bovine serum albumin” value is on record as “能够共价标记牛血清蛋白”. In series [2], the “covalent labelling of proteins at live-cell level” value is “能够在活细胞水平共价标记蛋白”.
In the same order, the values of `C#Cc1ccc(OCc2ccc(S(=O)(=O)N(C)C#C)cc2)cc1` [YN-3] are “能够共价标记牛血清蛋白” and “能够在活细胞水平共价标记蛋白”.
